From patent publication US9763445B2, “Safened herbicidal compositions comprising a pyridine carboxylic acid herbicide” (Dow AgroSciences, LLC, priority 2014, dated 2017)
Read-outs that look alike come from different tables or passages of the source.

Tests used:
kochia (KCHSC) = test: Postemergence greenhouse trial, % visual injury on kochia; assay type: in vivo, Kochia scoparia; details: KCHSC; for pest or weed control at 4.38 g/ha: compound 4.380 g/ha; for % visual injury, Ob: CQC-m 0 g/ha
Procedure: (§1) Seeds of the desired test plant species were planted in Sun Gro MetroMix® 306 planting mixture, which typically has a pH of 6.0 to 6.8 and an organic matter content of about 30 percent, in plastic pots with a surface area of 103.2 square centimeters (cm^2). When required to ensure good germination and healthy plants, a fungicide treatment and/or other chemical or physical treatment was applied. The plants were grown for 7-36 days (d) in a greenhouse with an approximate 14-hour (h) photoperiod which was maintained at about 23° C. during the day and 22° C. during the night. Nutrients and water were added on a regular basis and supplemental lighting was provided with overhead metal halide 1000-Watt lamps as necessary. The plants were employed for testing when they reached the second or third true leaf stage.
(§2) Weighed amounts of technical material were dissolved in a volume of 97:3 volume per volume (v/v) acetone/dimethyl sulfoxide (DMSO) to stock solutions. […] The concentrated stock solutions were diluted with an aqueous mixture of 1.5% v/v of Agri-dex crop oil concentrate to provide the appropriate application rates. Compound requirements are based upon a 12 milliliter (mL) application volume at a rate of 187 liters per hectare (L/ha). Stocks solutions of the safeners were prepared following the same procedure. Spray solutions of the safeners and experimental compound mixtures were prepared by adding the stock solutions to the appropriate amount of dilution solution to form a 12 mL spray solution in two-way combinations. Formulated compounds were applied to the plant material with an overhead Mandel track sprayer equipped with 8002E nozzles calibrated to deliver 187 L/ha over an application area of 0.503 square meters (m^2) at a spray height of 18 inches (43 centimeters (cm)) above average plant canopy. Control plants were sprayed in the same manner with the solvent blank. All herbicide application (component a) rates are in g ae/ha and all safener (component b) rates are in g ai/ha.
(§3) The treated plants and control plants were placed in a greenhouse as described above and watered by sub-irrigation to prevent wash-off of the test compounds. After 20-22 d, the condition of the test plants as compared with that of the control plants was determined visually and scored on a scale of 0 to 100 percent where 0 corresponds to no injury and 100 corresponds to complete kill. Colby's equation was used to determine the herbicidal effects expected from the mixtures. […]

spring barley (HORVS) = test: Postemergence greenhouse trial, % visual injury on spring barley; assay type: in vivo, Hordeum vulgare; details: HORVS
Procedure: as §1, §2
The treated plants and control plants were placed in a greenhouse as described above and watered by sub-irrigation to prevent wash-off of the test compounds. After 20-22 d, the condition of the test plants as compared with that of the control plants was determined visually and scored on a scale of 0 to 100 percent where 0 corresponds to no injury and 100 corresponds to complete kill. The condition of the test plants was compared with that of the control plants as determined visually and scored on a scale of 0 to 100 percent, where 0 corresponds to no injury and 100 corresponds to complete kill. Colby's equation was used to determine the herbicidal effects expected from the mixtures.
The safener cloquintocet-mexyl was combined with compound 1, compound 2, compound 3, compound 7, compound 8, compound 9, compound 10, compound 11, compound 12, compound 13, compound 14, compound 15, compound 16, compound 17, compound 18, compound 19, and compound 20, and applied to spring wheat (TRZAS), winter wheat (TRZAW), and spring barley (HORVS) and the phytotoxicity of the herbicidal compositions was measured. […]

wild mustard (SINAR) = test: Postemergence greenhouse trial, % visual injury on wild mustard; assay type: in vivo, Sinapis arvensis; details: SINAR; for % visual injury, Ob: CQC-m 0 g/ha
Procedure: as §1, §2, §3

pigweed (AMARE) = test: Postemergence greenhouse trial, % visual injury on pigweed; assay type: in vivo, Amaranthus retroflexus; details: AMARE, CQC-m 0 g/ha
Outline: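 Postemergence greenhouse spray (187 L/ha, 1.5% v/v Agri-dex in water, acetone/DMSO stocks) on plants at second–third true leaf stage, ~23/22 °C, 14 h photoperiod; herbicides in g ae/ha, safener cloquintocet-mexyl in g ai/ha. Visual injury 0–100% versus solvent-blank controls after 20–22 d; Colby's equation gave expected mixture effects.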

lambsquarters (CHEAL) = test: Postemergence greenhouse trial, % visual injury on lambsquarters; assay type: in vivo, Chenopodium album; details: Chenopodium album, post-emergence, CHEAL, CQC-m 0, read-out: % visual injury, Ob
Outline: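 Plants at second or third true leaf stage, greenhouse-grown (14 h photoperiod, ~23/22° C.), sprayed postemergence with compounds alone or with safener cloquintocet-mexyl in 1.5% v/v Agri-dex crop oil at 187 L/ha. Visual injury scored 0–100% versus solvent-blank controls after 20-22 d; expected mixture effects by Colby's equation.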

[1] = Bassia scoparia, post-emergence, CQC-m 0, read-out: % visual injury, Ob
[2] = Bassia scoparia, post-emergence, compound 8.75 g/ha, CQC-m 0, read-out: % visual injury, Ob
[3] = Bassia scoparia, post-emergence, compound 17.5 g/ha, CQC-m 0, read-out: % visual injury, Ob
[4] = Bassia scoparia, post-emergence, compound 35 g/ha, CQC-m 0, read-out: % visual injury, Ob
[5] = Bassia scoparia, post-emergence, compound 70 g/ha, CQC-m 0, read-out: % visual injury, Ob
[6] = compound 4.375 g/ha, CQC-m 0 g/ha
[7] = compound 8.75 g/ha, CQC-m 0 g/ha
[8] = compound 17.5 g/ha, CQC-m 0 g/ha

Compound | pest or weed control at 4.38 g/ha (kochia (KCHSC); [1]) [%] | pest or weed control at 8.75 g/ha (kochia (KCHSC); [2]) [%] | pest or weed control at 17.5 g/ha (kochia (KCHSC); [3]) [%] | pest or weed control at 35 g/ha (kochia (KCHSC); [4]) [%] | pest or weed control at 70 g/ha (kochia (KCHSC); [5]) [%] | % visual injury, Ob (spring barley (HORVS); compound 4.380 g/ha, CQC-m 0) [%] | % visual injury, Ob (spring barley (HORVS); compound 8.75 g/ha, CQC-m 0) [%] | % visual injury, Ob (spring barley (HORVS); compound 17.5 g/ha, CQC-m 0) [%] | % visual injury, Ob (spring barley (HORVS); compound 35 g/ha, CQC-m 0) [%] | % visual injury, Ob (spring barley (HORVS); compound 70 g/ha, CQC-m 0) [%] | % visual injury, Ob (kochia (KCHSC); compound 4.375 g/ha) [%] | % visual injury, Ob (kochia (KCHSC); compound 8.75 g/ha) [%] | % visual injury, Ob (kochia (KCHSC); compound 17.5 g/ha) [%] | % visual injury, Ob (kochia (KCHSC); compound 35 g/ha) [%] | % visual injury, Ob (kochia (KCHSC); compound 70 g/ha) [%] | % visual injury, Ob (spring barley (HORVS); [6]) [%] | % visual injury, Ob (spring barley (HORVS); [7]) [%] | % visual injury, Ob (spring barley (HORVS); [8]) [%] | % visual injury, Ob (spring barley (HORVS); compound 35 g/ha, CQC-m 0 g/ha) [%] | % visual injury, Ob (spring barley (HORVS); compound 70 g/ha, CQC-m 0 g/ha) [%] | also measured
CO/C=N/c1c(F)c(-c2ccc3cc[nH]c3c2F)nc(C(=O)OC)c1Cl [compound 10] | 80 | 80 | 100 | 100 | 100 | 0 | 10 | 20 | 20 | 40 | – | – | – | – | – | – | – | – | – | – | pest or weed control at 4.38 g/ha (wild mustard (SINAR); Brassica, post-emergence, compound 4.380 g/ha, CQC-m 0, read-out: % visual injury, Ob): 90%; pest or weed control at 8.75 g/ha (wild mustard (SINAR); Brassica, post-emergence, compound 8.75 g/ha, CQC-m 0, read-out: % visual injury, Ob): 93%; pest or weed control at 17.5 g/ha (wild mustard (SINAR); Brassica, post-emergence, compound 17.5 g/ha, CQC-m 0, read-out: % visual injury, Ob): 97%; pest or weed control at 35 g/ha (wild mustard (SINAR); Brassica, post-emergence, compound 35 g/ha, CQC-m 0, read-out: % visual injury, Ob): 100%; pest or weed control at 70 g/ha (wild mustard (SINAR); Brassica, post-emergence, compound 70 g/ha, CQC-m 0, read-out: % visual injury, Ob): 100%
Nc1cc(-c2ccc3cc[nH]c3c2F)nc(C(=O)O)c1Cl [compound 15] | – | – | – | – | – | – | – | – | – | – | 10 | 10 | 50 | 60 | 75 | 0 | 0 | 0 | 10 | 10 | % visual injury, Ob (wild mustard (SINAR); compound 4.375 g/ha): 93%; % visual injury, Ob (wild mustard (SINAR); compound 8.75 g/ha): 100%; % visual injury, Ob (wild mustard (SINAR); compound 17.5 g/ha): 100%; % visual injury, Ob (wild mustard (SINAR); compound 35 g/ha): 100%; % visual injury, Ob (wild mustard (SINAR); compound 70 g/ha): 100%; % visual injury, Ob (pigweed (AMARE); compound 4.375 g/ha): 70%; % visual injury, Ob (pigweed (AMARE); compound 8.75 g/ha): 100%; % visual injury, Ob (pigweed (AMARE); compound 17.5 g/ha): 100%; % visual injury, Ob (pigweed (AMARE); compound 35 g/ha): 100%
COC(=O)c1nc(-c2ccc3cc[nH]c3c2F)c(F)c(N)c1OC [compound 12] | 15 | 62 | 82 | 95 | 95 | 18 | 23 | 37 | 47 | 60 | – | – | – | – | – | – | – | – | – | – | pest or weed control at 4.38 g/ha (lambsquarters (CHEAL); compound 4.380 g/ha): 40%; pest or weed control at 8.75 g/ha (lambsquarters (CHEAL); compound 8.75 g/ha): 50%; pest or weed control at 17.5 g/ha (lambsquarters (CHEAL); compound 17.5 g/ha): 72%; pest or weed control at 35 g/ha (lambsquarters (CHEAL); compound 35 g/ha): 88%; pest or weed control at 70 g/ha (lambsquarters (CHEAL); compound 70 g/ha): 91%
COc1c(C(=O)O)nc(-c2ccc3cc[nH]c3c2F)c(F)c1N [compound 13] | – | – | – | – | – | – | – | – | – | – | 55 | 84 | 89 | 92 | 93 | 30 | 38 | 55 | 64 | 73 | % visual injury, Ob (wild mustard (SINAR); compound 4.375 g/ha): 95%; % visual injury, Ob (wild mustard (SINAR); compound 8.75 g/ha): 100%; % visual injury, Ob (wild mustard (SINAR); compound 17.5 g/ha): 100%; % visual injury, Ob (wild mustard (SINAR); compound 35 g/ha): 100%; % visual injury, Ob (wild mustard (SINAR); compound 70 g/ha): 100%
Nc1c(F)c(-c2ccc3ccoc3c2)nc(C(=O)O)c1Cl [compound 20] | – | – | – | – | – | – | – | – | – | – | – | – | – | – | – | – | – | – | – | – | pest or weed control at 4.375 g/ha (kochia (KCHSC); Bassia scoparia, post-emergence, 4.375 g/ha, applied alone, read-out: % visual injury, Ob): 70%; pest or weed control at 8.75 g/ha (kochia (KCHSC); Bassia scoparia, post-emergence, 8.75 g/ha, applied alone, read-out: % visual injury, Ob): 80%; pest or weed control at 17.5 g/ha (kochia (KCHSC); Bassia scoparia, post-emergence, 17.5 g/ha, applied alone, read-out: % visual injury, Ob): 85%; pest or weed control at 35 g/ha (kochia (KCHSC); Bassia scoparia, post-emergence, 35 g/ha, applied alone, read-out: % visual injury, Ob): 90%; pest or weed control at 70 g/ha (kochia (KCHSC); Bassia scoparia, post-emergence, 70 g/ha, applied alone, read-out: % visual injury, Ob): 95%; % visual injury, Ob (spring barley (HORVS); 4.375 g/ha, applied alone): 0%; % visual injury, Ob (spring barley (HORVS); 8.75 g/ha, applied alone): 10%; % visual injury, Ob (spring barley (HORVS); 17.5 g/ha, applied alone): 20%; % visual injury, Ob (spring barley (HORVS); 35 g/ha, applied alone): 30%; % visual injury, Ob (spring barley (HORVS); 70 g/ha, applied alone): 40%; pest or weed control at 4.375 g/ha (wild mustard (SINAR); Brassica, post-emergence, 4.375 g/ha, applied alone, read-out: % visual injury, Ob): 60%; pest or weed control at 8.75 g/ha (wild mustard (SINAR); Brassica, post-emergence, 8.75 g/ha, applied alone, read-out: % visual injury, Ob): 60%; pest or weed control at 17.5 g/ha (wild mustard (SINAR); Brassica, post-emergence, 17.5 g/ha, applied alone, read-out: % visual injury, Ob): 83%; pest or weed control at 35 g/ha (wild mustard (SINAR); Brassica, post-emergence, 35 g/ha, applied alone, read-out: % visual injury, Ob): 80%; pest or weed control at 70 g/ha (wild mustard (SINAR); Brassica, post-emergence, 70 g/ha, applied alone, read-out: % visual injury, Ob): 93%
